Measurements published in the NIST ThermoML archive (doi:10.1021/je300240k).
Values joined by “and” are separate entries in the source; they are usually repeats but may differ in a detail not shown here. Equal values may be shown once.

Settings: Liquid, Ebulliometric method (Recirculating still)

F/C=C/C(F)(F)F [trans-1,3,3,3-tetrafluoropropene]
Settings | vapor or sublimation pressure
223.1 K | 21 kPa
228.08 K | 28 kPa
232.99 K | 36 kPa
238.04 K | 47 kPa
243.02 K | 61 kPa
248.04 K | 77 kPa
253.02 K | 96 kPa
257.14 K | 115 kPa
258.04 K | 119 kPa
259.15 K | 125 kPa
261.15 K | 136 kPa
263.1 K | 147 kPa
263.15 K | 147 kPa
265.15 K | 160 kPa
267.15 K | 173 kPa
268.01 K | 178 kPa
269.15 K | 186 kPa
271.15 K | 201 kPa
273.06 K | 216 kPa
273.15 K | 216 kPa
275.15 K | 233 kPa
277.15 K | 250 kPa
278.01 K | 258 kPa
279.15 K | 269 kPa
281.15 K | 288 kPa
282.93 K | 306 kPa
283.15 K | 308 kPa
285.15 K | 330 kPa
287.15 K | 352 kPa
287.89 K | 361 kPa
289.15 K | 376 kPa
291.15 K | 401 kPa
292.85 K | 423 kPa
293.15 K | 427 kPa
295.15 K | 455 kPa
297.15 K | 484 kPa
297.69 K | 492 kPa
297.87 K | 495 kPa
298.77 K | 508 kPa
299.15 K | 514 kPa
301.15 K | 546 kPa
303.15 K | 579 kPa
303.68 K | 588 kPa
305.15 K | 614 kPa and 613 kPa
307.15 K | 649 kPa
308.82 K | 681 kPa
309.15 K | 687 kPa
311.15 K | 726 kPa
312.85 K | 761 kPa
313.15 K | 767 kPa
315.15 K | 810 kPa
317.15 K | 854 kPa
317.75 K | 868 kPa
319.15 K | 900 kPa
321.15 K | 948 kPa
323.1 K | 997 kPa
323.15 K | 998 kPa
325.15 K | 1050 kPa
327.15 K | 1104 kPa
328.12 K | 1130 kPa
329.15 K | 1160 kPa
331.15 K | 1218 kPa
333.11 K | 1276 kPa
333.15 K | 1278 kPa
335.15 K | 1340 kPa
337.15 K | 1405 kPa
338.11 K | 1436 kPa
339.15 K | 1472 kPa
341.15 K | 1541 kPa
343.1 K | 1610 kPa
343.15 K | 1613 kPa
348.09 K | 1799 kPa
353.08 K | 2005 kPa
